Assay results reported in PubChem BioAssay (NCI).
Several values for one entry are separate records, joined by “and”; a condition that tells them apart may be missing. Identical values can stand only once.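 All cell lines were grown in 96-well plates and treated with compound for 48 hours. At the GI50, growth is halved. TGI marks complete inhibition of growth.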

What was measured:
Assay in all cases: NCI tumour cell line growth inhibition, 48 h
DLD-1 colon = test system: DLD-1 colon
KM20L2 colon = test system: KM20L2 colon
SNB-78 CNS = test system: SNB-78 CNS
LXFL 529 NSCLC = test system: LXFL 529 NSCLC
RXF-631 renal = test system: RXF-631 renal
M19-MEL melanoma = test system: M19-MEL melanoma
XF 498 CNS = test system: XF 498 CNS
MDA-N = test system: MDA-N
HOP-18 NSCLC = test system: HOP-18 NSCLC
P388 leukemia = test system: P388 leukemia
P388/ADR leukemia = test system: P388/ADR leukemia

Cc1ccc(C)c(NC(=O)C(=O)C(C2C(C)CC(=O)C2CC(=O)O)[N+](=O)[O-])c1 (centres undefined)
TGI (DLD-1 colon): > 100 µM
TGI (KM20L2 colon): > 100 µM
TGI (SNB-78 CNS): > 100 µM
TGI (LXFL 529 NSCLC): > 100 µM
TGI (RXF-631 renal): > 100 µM
TGI (M19-MEL melanoma): > 100 µM
TGI (XF 498 CNS): > 100 µM

Cc1ccc(S(=O)(=O)NC(=O)Nc2ncn[nH]2)cc1
TGI (MDA-N): > 100 µM

CCCCCCCCCCCCNC(=S)OCCCC
TGI (DLD-1 colon): > 100 µM
TGI (KM20L2 colon): > 100 µM
TGI (SNB-78 CNS): > 100 µM
TGI (LXFL 529 NSCLC): > 100 µM
TGI (RXF-631 renal): > 100 µM
TGI (M19-MEL melanoma): > 100 µM
TGI (HOP-18 NSCLC): > 100 µM
TGI (XF 498 CNS): > 100 µM

O=C1/C(=C/c2ccccc2)CN(C(=O)/C=C/c2ccccc2)C/C1=C\c1ccccc1
TGI (DLD-1 colon): 11.3 µM
TGI (KM20L2 colon): > 46.2 µM
TGI (SNB-78 CNS): > 73 µM
TGI (LXFL 529 NSCLC): 29.1 µM
TGI (RXF-631 renal): > 100 µM
TGI (MDA-N): 3.43 µM
TGI (M19-MEL melanoma): > 22.9 µM
TGI (HOP-18 NSCLC): 97.6 µM
TGI (XF 498 CNS): 38 µM

CC(=O)OC1CCC2(C)C(=CCC3C2CCC2(C)C3CC3OC4(CCC(C)CN4)C(C)C32)C1 (centres undefined)
TGI (MDA-N): > 100 µM

CC(C)OC(=O)NNc1c(Cl)cc(Cl)cc1Cl
TGI (MDA-N): > 100 µM

Nc1ncnc2c1ncn2C1(CO)OC(CO)C(O)C1O (centres undefined)
TGI (DLD-1 colon): > 100 µM
TGI (KM20L2 colon): > 100 µM
TGI (SNB-78 CNS): > 100 µM
TGI (LXFL 529 NSCLC): > 100 µM
TGI (RXF-631 renal): > 100 µM
TGI (HOP-18 NSCLC): > 100 µM
TGI (XF 498 CNS): > 100 µM

CN(C)Cc1nsc(N(C)C)n1
TGI (MDA-N): > 100 µM

Cc1ccccc1-c1cc(=O)c2cc(C)c(C)c(C(=O)O)c2o1
TGI (DLD-1 colon): > 100 µM
TGI (KM20L2 colon): > 100 µM
TGI (SNB-78 CNS): > 100 µM
TGI (LXFL 529 NSCLC): > 100 µM
TGI (RXF-631 renal): > 100 µM
TGI (M19-MEL melanoma): > 100 µM
TGI (HOP-18 NSCLC): > 100 µM
TGI (XF 498 CNS): > 100 µM

COC(=O)C(C(=O)C(=O)Nc1nc2ccc(OC)cc2s1)c1cnc2ccccc2n1 (centres undefined)
TGI (DLD-1 colon): > 100 µM
TGI (KM20L2 colon): > 100 µM
TGI (SNB-78 CNS): > 100 µM
TGI (LXFL 529 NSCLC): > 100 µM
TGI (M19-MEL melanoma): > 100 µM
TGI (XF 498 CNS): > 100 µM

O=S(=O)(c1ccccc1)C1(C2(S(=O)(=O)c3ccccc3)CCN=N2)CCN=N1 (centres undefined)
TGI (DLD-1 colon): > 100 µM
TGI (LXFL 529 NSCLC): > 100 µM
TGI (M19-MEL melanoma): > 100 µM
TGI (XF 498 CNS): > 100 µM

CCOC(=O)c1ccc(N[C@@H]2c3cc4c(cc3C(c3cc(OC)c(O)c(OC)c3)[C@H]3C(=O)OCC32)OCO4)cc1 (some centres undefined)
GI50 (DLD-1 colon): 0.877 µM
TGI (DLD-1 colon): 8.02 µM
TGI (P388 leukemia): 0.0208 µM
TGI (P388/ADR leukemia): 0.0959 µM
TGI (KM20L2 colon): 10.7 µM
TGI (SNB-78 CNS): 66.2 µM
TGI (LXFL 529 NSCLC): 34.7 µM
GI50 (M19-MEL melanoma): 0.697 µM
TGI (M19-MEL melanoma): 9.13 µM
GI50 (XF 498 CNS): 0.418 µM
TGI (XF 498 CNS): 0.979 µM and 5.6 µM

C=CCN=C1NC(=O)C(CC(=O)Nc2ccc([N+](=O)[O-])cc2[N+](=O)[O-])S1 (centres undefined)
TGI (DLD-1 colon): > 100 µM
TGI (KM20L2 colon): > 100 µM
TGI (SNB-78 CNS): > 100 µM
TGI (LXFL 529 NSCLC): > 100 µM
TGI (RXF-631 renal): > 100 µM
TGI (M19-MEL melanoma): > 100 µM
TGI (HOP-18 NSCLC): > 100 µM
TGI (XF 498 CNS): > 100 µM

COc1ccc(C)cc1-c1ccc(-c2cc(C)ccc2OC)o1
TGI (DLD-1 colon): > 100 µM
TGI (KM20L2 colon): > 100 µM
TGI (SNB-78 CNS): > 100 µM
TGI (LXFL 529 NSCLC): > 100 µM
TGI (RXF-631 renal): > 100 µM
TGI (M19-MEL melanoma): > 100 µM

CCCOC(=O)C1C(c2ccc(OC)cc2)NC(c2ccc(OC)cc2)C(C(=O)OCCC)S1(=O)=O (centres undefined)
GI50 (DLD-1 colon): > 100 µM
TGI (DLD-1 colon): > 100 µM
GI50 (KM20L2 colon): > 100 µM
TGI (KM20L2 colon): > 100 µM
GI50 (SNB-78 CNS): > 100 µM
TGI (SNB-78 CNS): > 100 µM
GI50 (LXFL 529 NSCLC): > 100 µM
TGI (LXFL 529 NSCLC): > 100 µM
GI50 (RXF-631 renal): > 100 µM
TGI (RXF-631 renal): > 100 µM

CC1(C)CCOC(Sc2ccccc2)C1 (centres undefined)
TGI (DLD-1 colon): > 100 µM
TGI (KM20L2 colon): > 100 µM
TGI (SNB-78 CNS): > 100 µM
TGI (LXFL 529 NSCLC): > 100 µM
TGI (M19-MEL melanoma): > 100 µM
TGI (XF 498 CNS): > 100 µM

O=C1c2ccccc2C(=O)N1CCN(CCN1C(=O)c2ccccc2C1=O)Cc1ccccc1
TGI (DLD-1 colon): > 100 µM
TGI (KM20L2 colon): > 100 µM
TGI (SNB-78 CNS): > 100 µM
TGI (LXFL 529 NSCLC): > 100 µM
TGI (M19-MEL melanoma): > 100 µM
TGI (XF 498 CNS): > 100 µM

O=C1CC2=CCCC2O1 (centres undefined)
TGI (DLD-1 colon): > 100 µM
TGI (SNB-78 CNS): > 100 µM
TGI (LXFL 529 NSCLC): > 100 µM
TGI (M19-MEL melanoma): > 100 µM
TGI (XF 498 CNS): > 100 µM

O=C1C=C(c2ccccc2)NC1(c1ccccc1)c1cc(-c2ccccc2)[nH]c1-c1ccccc1 (centres undefined)
TGI (DLD-1 colon): > 100 µM
TGI (KM20L2 colon): > 100 µM
TGI (SNB-78 CNS): > 100 µM
TGI (LXFL 529 NSCLC): > 100 µM
TGI (RXF-631 renal): > 100 µM
TGI (M19-MEL melanoma): > 100 µM
TGI (HOP-18 NSCLC): > 100 µM

COC(=O)N1C=CC2=C(C)C3Nc4ccccc4C3C(C)=C2C1 (centres undefined)
TGI (DLD-1 colon): 19.8 µM
TGI (KM20L2 colon): > 100 µM
TGI (SNB-78 CNS): 3.66 µM
TGI (LXFL 529 NSCLC): 9.94 µM
TGI (M19-MEL melanoma): > 100 µM
TGI (XF 498 CNS): 7.87 µM

O=C1OC(=O)c2c1cc1cc3c(cc1c2-c1ccc2c(c1)OCO2)OCO3
TGI (MDA-N): > 100 µM
